Data: patent US8134015B2, “Compound inhibiting in vivo phosphorous transport and medicine containing the same” (Kyowa Hakko Kirin Co., Ltd., priority 2003, dated 2012)

Molecular target: T1, rat NaPi-2b (Rattus norvegicus, UniProt Q9JJ09)
T1 construct: expressed in transfected cells; host or cells: Xenopus oocytes injected with cRNA
T1 sequence (Q9JJ09 1-695): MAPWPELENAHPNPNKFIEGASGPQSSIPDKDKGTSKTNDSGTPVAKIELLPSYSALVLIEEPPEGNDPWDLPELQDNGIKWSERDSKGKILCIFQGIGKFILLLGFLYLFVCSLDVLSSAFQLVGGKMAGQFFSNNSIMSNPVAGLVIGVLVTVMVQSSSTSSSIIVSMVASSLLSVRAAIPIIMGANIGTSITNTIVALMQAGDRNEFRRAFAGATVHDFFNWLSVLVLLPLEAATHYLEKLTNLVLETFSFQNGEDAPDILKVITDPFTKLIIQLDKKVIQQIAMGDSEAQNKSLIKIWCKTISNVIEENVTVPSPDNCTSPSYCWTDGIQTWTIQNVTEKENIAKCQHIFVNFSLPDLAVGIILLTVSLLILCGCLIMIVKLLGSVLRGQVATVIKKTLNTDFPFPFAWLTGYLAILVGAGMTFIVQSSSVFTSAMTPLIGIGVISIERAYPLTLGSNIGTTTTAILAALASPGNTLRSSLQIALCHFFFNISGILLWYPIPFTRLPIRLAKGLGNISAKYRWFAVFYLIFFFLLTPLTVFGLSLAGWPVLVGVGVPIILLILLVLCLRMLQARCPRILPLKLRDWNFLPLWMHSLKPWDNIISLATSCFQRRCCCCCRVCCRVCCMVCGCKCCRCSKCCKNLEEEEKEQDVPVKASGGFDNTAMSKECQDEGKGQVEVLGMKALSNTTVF
Test: Sodium-dependent phosphate uptake of Xenopus oocytes which expressed NaPi-2b (32P)
Type: cell-based
Conditions: Xenopus oocytes expressing rat NaPi-2b, 32P radioactive phosphorus; read-out: IC50 (phosphate uptake inhibitory activity)
Summary of the method: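 Read-out is 32P phosphate uptake into Xenopus oocytes expressing rat intestinal NaPi-2b (cRNA injection, 2-day culture). Inhibition at 300 μM and 100 μM was derived from a single inhibition curve and given as percent.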

| SMILES | IC50 [nM] |
| --- | --- |
| Cc1ccc(/C=N/NC(=O)c2c(C)csc2NC(=O)c2cccc(CSc3nc[nH]n3)c2)cc1C [Compound 551, N-[3-(3,4-Dimethyl-benzylidene-hydrazinocarbonyl)-4-methyl-thiophen-2-yl]-3-(1H-[1,2,4]triazol-3-ylsulfanylmethyl)-benzamide] | 470 |
| Cc1ccc(/C=N/NC(=O)c2c(C)csc2NC(=O)c2cccc(CSc3nc[nH]n3)c2)cc1 [Compound 552, N-[4-Methyl-3-(4-methyl-benzylidene-hydrazinocarbonyl)-thiophen-2-yl]-3-(1H-[1,2,4]triazol-3-ylsulfanylmethyl)-benzamide] | 2630 |
| Cc1csc(NC(=O)c2cccc(CSc3nc[nH]n3)c2)c1C(=O)N/N=C/c1ccc(F)cc1 [Compound 553, N-[3-(4-Fluoro-benzylidene-hydrazinocarbonyl)-4-methyl-thiophen-2-yl]-3-(1H-[1,2,4]triazol-3-ylsulfanylmethyl)-benzamide] | 2800 |
| Cc1csc(NC(=O)c2cccc(CSc3nc[nH]n3)c2)c1C(=O)N/N=C/c1cccc(F)c1 [Compound 554, N-[3-(3-Fluoro-benzylidene-hydrazinocarbonyl)-4-methyl-thiophen-2-yl]-3-(1H-[1,2,4]triazol-3-ylsulfanylmethyl)-benzamide] | 1460 |
| Cc1csc(NC(=O)c2cccc(CSc3nc[nH]n3)c2)c1C(=O)N/N=C/c1ccc(Cl)c(C(F)(F)F)c1 [Compound 555, N-[3-(4-Chloro-3-trifluoromethyl-benzylidene-hydrazinocarbonyl)-4-methyl-thiophen-2-yl]-3-(1H-[1,2,4]triazol-3-ylsulfanylmethyl)-benzamide] | < 3000 |
| COc1ccc(/C=N/NC(=O)c2c(C)csc2NC(=O)c2cccc(CSc3nc[nH]n3)c2)cc1 [Compound 556, N-[3-(4-Methoxy-benzylidene-hydrazinocarbonyl)-4-methyl-thiophen-2-yl]-3-(1H-[1,2,4]triazol-3-ylsulfanylmethyl)-benzamide] | < 3000 |
| Cc1ccc(/C=N/NC(=O)c2c(C)csc2NC(=O)c2cccc(CSCCCO)c2)cc1C [Compound 557, N-[3-(3,4-Dimethyl-benzylidene-hydrazinocarbonyl)-4-methyl-thiophen-2-yl]-3-(3-hydroxy-propylsulfanylmethyl)-benzamide] | < 300 |
| Cc1ccc(/C=N/NC(=O)c2c(C)csc2NC(=O)c2cccc(CSCCCO)c2)cc1 [Compound 558, 3-(3-Hydroxy-propylsulfanylmethyl)-N-[4-methyl-3-(4-methyl-benzylidene-hydrazinocarbonyl)-thiophen-2-yl]-benzamide] | 1070 |
| Cc1csc(NC(=O)c2cccc(CSCCCO)c2)c1C(=O)N/N=C/c1ccc(F)cc1 [Compound 559, N-[3-(4-Fluoro-benzylidene-hydrazinocarbonyl)-4-methyl-thiophen-2-yl]-3-(3-hydroxy-propylsulfanylmethyl)-benzamide] | 1260 |
| Cc1csc(NC(=O)c2cccc(CSCCCO)c2)c1C(=O)N/N=C/c1cccc(F)c1 [Compound 560, N-[3-(3-Fluoro-benzylidene-hydrazinocarbonyl)-4-methyl-thiophen-2-yl]-3-(3-hydroxy-propylsulfanylmethyl)-benzamide] | 1090 |

Same assay, conditions: phosphate uptake, oocytes expressing rat NaPi-2b; 300 μM, determined from inhibition curve

| SMILES | inhibition at 300 µM [%] |
| --- | --- |
| CCN(CC)CCNCc1cccc(C(=O)Nc2c(C)csc2C(=O)N/N=C/c2cccc(F)c2)c1 [Compound 538, 3-[(2-Diethylamino-ethylamino)-methyl]-N-[2-(3-fluoro-benzylidene-hydrazinocarbonyl)-4-methyl-thiophen-3-yl]-benzamide] | 30.3 |
| CCN(CC)CCNCc1cccc(C(=O)Nc2c(C)csc2C(=O)N/N=C/c2ccc(Cl)c(C(F)(F)F)c2)c1 [Compound 539, N-[2-(4-Chloro-3-trifluoromethyl-benzylidene-hydrazinocarbonyl)-4-methyl-thiophen-3-yl]-3-[(2-diethylamino-ethylamino)-methyl]-benzamide] | 88.4 |
| Cc1ccc(/C=N/NC(=O)c2scc(C)c2NC(=O)c2cccc(CN(CC(C)O)CC(C)O)c2)cc1 (centres unmarked) [Compound 540, 3-{[Bis-(2-hydroxy-propyl)-amino]-methyl}-N-[4-methyl-2-(4-methyl-benzylidene-hydrazinocarbonyl)-thiophen-3-yl]-benzamide] | 38.4 |
| Cc1ccc(/C=N/NC(=O)c2scc(C)c2NC(=O)c2cccc(CN3CCC(O)CC3)c2)cc1C [Compound 541, N-[2-(3,4-Dimethyl-benzylidene-hydrazinocarbonyl)-4-methyl-thiophen-3-yl]-3-(4-hydroxy-piperidin-1-ylmethyl)-benzamide] | 32.2 |
| Cc1csc(C(=O)N/N=C/c2cccc(F)c2)c1NC(=O)c1cccc(CN2CCC(O)CC2)c1 [Compound 542, N-[2-(3-Fluoro-benzylidene-hydrazinocarbonyl)-4-methyl-thiophen-3-yl]-3-(4-hydroxy-piperidin-1-ylmethyl)-benzamide] | 41.1 |
| COc1ccc(/C=N/NC(=O)c2scc(C)c2NC(=O)c2cccc(CN3CCC(O)CC3)c2)cc1 [Compound 543, 3-(4-Hydroxy-piperidin-1-ylmethyl)-N-[2-(4-methoxy-benzylidene-hydrazinocarbonyl)-4-methyl-thiophen-3-yl]-benzamide] | 30.2 |
| Cc1ccc(CNNC(=O)c2cc(Br)ccc2NC(=O)c2ccccn2)cc1 [Compound 544, Pyridin-2-carboxylic acid {4-bromo-2-[N′-(4-methyl-benzyl)-hydrazinocarbonyl]-phenyl}-amide] | 60 |
| Cc1ccc(CNNC(=O)c2ccccc2NC(=O)c2ccncc2)cc1 [Compound 545, N-{2-[N′-(4-Methyl-benzyl)-hydrazinocarbonyl]-phenyl}-isonicotinamide] | 88.8 |
| O=C(Nc1ccc(Br)cc1C(=O)NNCc1ccc(Cl)c(C(F)(F)F)c1)c1cccc(CSCCO)c1 [Compound 546, N-{4-Bromo-2-[N′-(4-chloro-3-trifluoromethyl-benzyl)-hydrazinocarbonyl]-phenyl}-3-(2-hydroxy-ethylsulfanylmethyl)-benzamide] | 85.2 |
| Cc1ccc(CNNC(=O)c2cc(Cl)ccc2NC(=O)c2cccc(CSCCO)c2)cc1 [Compound 547, N-{4-Chloro-2-[N′-(4-methyl-benzyl)-hydrazinocarbonyl]-phenyl}-3-(2-hydroxy-ethylsulfanylmethyl)-benzamide] | 66.6 |
| COc1ccc(C(=O)Nc2ccc(Br)cc2C(=O)NNCc2ccc(C)c(C)c2)cc1OC [Compound 548, N-{4-Bromo-2-[N′-(3,4-dimethyl-benzyl)-hydrazinocarbonyl]-phenyl}-3,4-dimethoxy-benzamide] | 85.7 |
| O=C(Nc1ccc(Cl)cc1C(=O)N/N=C/c1cccc(F)c1)c1cccc(CN(CCO)CCO)c1 [Compound 549, 3-{[Bis-(2-hydroxy-ethyl)-amino]-methyl}-N-[4-chloro-2-(3-fluoro-benzylidene-hydrazinocarbonyl)-phenyl]-benzamide] | 85.1 |
| O=C(Nc1ccc(Cl)cc1C(=O)N/N=C/c1ccc(F)cc1)c1cccc(CN(CCO)CCO)c1 [Compound 550, 3-{[Bis-(2-hydroxy-ethyl)-amino]-methyl}-N-[4-chloro-2-(4-fluoro-benzylidene-hydrazinocarbonyl)-phenyl]-benzamide] | 78.9 |
